Laboratory results taken from patent US7477053B2, “Detection of electromagnetic fields” (priority 1994, dated 2009).
Entries after “also recorded” stand apart in the source; their conditions may differ.

Tests used:
rat liver Microsomes = experiment: Magnetometer detection of substrate metabolism by rat liver microsomes; conditions: for Magnetometer chart response to substrate, RLM / Magnetometer chart response to substrate, RLM + NADPH: rat liver microsomes 1 mg protein/ml; for Magnetometer chart response to substrate, RLM: no NADPH stated; for Magnetometer chart response to substrate, RLM + NADPH: NADPH present
pig liver chromatin = experiment: Magnetometer detection of substrate metabolism by pig liver chromatin
pig liver nuclei = experiment: Magnetometer detection of substrate response in pig liver nuclei; type: in vitro ADME; conditions: pig liver nuclei 1 mg protein/ml, without NADPH

Row | Compound | Metabolized by rat liver Microsomes (rat liver Microsomes; Non-NADPH-dependent) | Metabolized by pig liver chromatin (pig liver chromatin; NADPH-dependent) | Metabolized by rat liver Microsomes (rat liver Microsomes; NADPH-dependent) | further results
1 | Nc1ncnc2c1ncn2[C@@H]1O[C@H](CO)[C@@H](O)[C@H]1O [adenosine] | + |  |  | Magnetometer chart response to substrate, RLM (rat liver Microsomes): No further change in slope
2 | Cc1c(N(C)C)c(=O)n(-c2ccccc2)n1C [aminopyrine] |  | − | + | 
3 | CN(C)CCC=C1c2ccccc2CCc2ccccc21 [amitryptyline] |  | + | + | 
4 | Nc1ccccc1 [aniline] |  | − | + | 
5 | C[C@]12CCC(=O)C=C1CC[C@@H]1[C@@H]2[C@@H](O)C[C@@]2(C)[C@H]1CC[C@]2(O)C(=O)CO [cortisol] |  | − | + | 
6 | C[C@]12CC[C@@H]3c4ccc(O)cc4CC[C@H]3[C@@H]1CC[C@@H]2O [estridiol, β-estradiol] |  | − |  | 
7 | CNCCC(Oc1ccc(C(F)(F)F)cc1)c1ccccc1 (stereo not shown) [fluoxetine] |  |  | + | 
8 | NCCc1c[nH]cn1 [histamine] | + |  |  | Metabolized by pig liver chromatin (pig liver chromatin; Non-NADPH-dependent): +
9 | N[C@@H](Cc1c[nH]cn1)C(=O)O [histidine] | + |  |  | Magnetometer chart response to substrate, PLN (pig liver nuclei): PLN. Response to HD.; Metabolized by pig liver chromatin (pig liver chromatin; Non-NADPH-dependent): ++; Magnetometer chart response to substrate, CHROM (pig liver chromatin; chromatin from pig liver nuclei 1 mg protein/ml, without NADPH, listed as HD): PBT (50) B 10 CHROM Response to HD; also recorded: PGT 100 CHROM (700) B. Response to HD; Magnetometer chart response to substrate, RLM + NADPH (rat liver Microsomes): RLM + NADPH. Two response to HD, short latency in both.; Magnetometer chart response to substrate, RLM (rat liver Microsomes): Enhanced slope
10 | N[C@H](CO)Cc1c[nH]cn1 [histidinol] | + |  |  | Metabolized by pig liver chromatin (pig liver chromatin; Non-NADPH-dependent): +
11 | CC(=O)[C@H]1CC[C@H]2[C@@H]3CCC4=CC(=O)CC[C@]4(C)[C@H]3CC[C@]12C [progresterone, progesterone] |  |  | + | 
12 | NCCCCN [putrescine] |  | + | + | Magnetometer chart response to substrate, PLN (pig liver nuclei): PLN. No response to PUTR until NADPH added.; Magnetometer chart response to substrate, RLM + NADPH (rat liver Microsomes): Increased slope; Magnetometer chart response to substrate, RLM + NADPH (rat liver Microsomes; listed as PU): PU (10) NADPH (10) response seen at end of record; also recorded: Response to PU
13 | C[C@]12CC[C@H]3[C@@H](CCC4=CC(=O)CC[C@@]43C)[C@@H]1CC[C@@H]2O [testosterone] |  | + | − | Magnetometer chart response to substrate, CHROM in presence of NADPH (pig liver chromatin; chromatin from pig liver nuclei, NADPH present): CHROM. Response to TEST in presence of NADPH
